Assays:
Release into ethanol = format: physicochemical; settings: for Encapsulated dye released: ethanol
Procedure: (§1) The sample was suspended in 50/50 v/v ethanol/water (10 mL) with stirring. At each time point, the sample was centrifuged (10,000 rpm, 10 minutes) and the supernatant removed. Fresh solvent was then added and the solid resuspended. In comparison, the release of dye from a similar sample into 100% ethanol solution is very rapid, with about 40% of the dye released after several minutes.
(§2) The sample was suspended in 50/50 v/v ethanol/water (10 mL) with stirring. At each time point, the sample was centrifuged (10,000 rpm, 10 minutes) and the supernatant removed. Fresh solvent was then added and the solid resuspended. In contrast to the slow release into ethanol/water, the release into ethanol is very rapid, with approximately 70% of the encapsulated dye released within one hour.
The samples (53.5 and 49.2 mg respectively) were suspended in ethanol (100 mL) with stirring. At each time point, 1.5 mL was extracted from both samples and centrifuged to isolate the solid, which was then returned to the solution with 1 mL of fresh ethanol. The extracted 1.5 mL was analysed by UV/Vis (absorbance at 536 nm), to determine the concentration of sudan red dye released into the supernatant. The second sample released dye more quickly than the first, but by 100 minutes, both samples had released >90% of the encapsulated sudan red dye.

[1] = Release into sodium hydroxide solution at pH=12; format: physicochemical; settings: Example 3, after 27 days, both samples (phenylsiloxane and vinylsiloxane)
Procedure: The rate of release of diuron into sodium hydroxide solution at pH=12 was measured over a period of one month. Analysing the extent of release is somewhat problematic due to the low solubility of diuron in water. In order to determine the release characteristics, diuron-doped particles (about […]) were suspended in NaOH solution (0.01 mol dm^−3, 50 mL) and stirred. At one-week intervals, the solution was centrifuged and the supernatant removed. The diuron-doped particles were then resuspended in a fresh solution of NaOH (0.01 mol dm^−3, 50 mL) and stirred. The removed supernatant was shaken with octanol (10 mL) in a separating flask to extract dissolved diuron. This was repeated twice, and the resulting approximately 30 mL organic fraction was reserved for diuron analysis by HPLC. The amount of diuron released after 27 days was about 5% (of the total encapsulated) for both samples. The amount released was less than expected compared with the dissolution results at pH=12. This could reflect an incomplete extraction of diuron from the aqueous phase during the process of shaking with octanol.

[2] = Release into 50/50 v/v ethanol/water; format: physicochemical; settings: phenylsiloxane particles
Procedure: Release of retinol from the particles into 50:50 (v/v) ethanol:water solution was measured over a period of 11 days. Due to decomposition of retinol released into the solution, the supernatant was refreshed at each time point, and the release measured using UV/Vis spectroscopy (peak at 325 nm). Approximately 11% of the encapsulated retinol was released after one day, followed by slower release thereafter.
as §1, §2

[3] = Integrity of retinol after encapsulation (UV/Visible spectra, leaching into ethanol); format: physicochemical
Source text: The UV/Visible spectra of the both retinol-doped and undoped phenylsiloxane particles dispersed in PTFE powder (10 wt %), were collected using a diffuse reflectance accessory. […] The bandshift from 325 nm in ethanol solution to 335 nm in the solid is due to difference of environment experienced by the retinol molecule. […] This is likely to be due to exposure to low pH (=1.0) during the hydrolysis of TMOS.

[4] = silica shell capsules loaded by post impregnation; after four hours; cited from earlier work

## CCCCNc1ccc(NCCCC)c2c1C(=O)c1ccccc1C2=O [Solvent blue 35]
Release into ethanol; similar sample to Example 5, 100% ethanol, after several minutes
  Dye released: about 40%

## CN(C)C(=O)Nc1ccc(Cl)c(Cl)c1 [diuron]
[1]
  Amount released (of the total encapsulated): about 5%

## C=C(C)[C@H]1CC=C(C)CC1 [limonene]
Release into ethanol; 15 ml limonene: 30 ml PTMS, HPLC
  Weight removed from the solid on leaching in ethanol: about 3%

## CC1=C(/C=C/C(C)=C/C=C/C(C)=C/CO)C(C)(C)CCC1 [retinol]
[2]; Example 1, 50:50 (v/v) ethanol:water, after one day
  Encapsulated dopant released: Approximately 11%
[3]; phenylsiloxane particles, absorption peak at 325 nm on release into ethanol
  Integrity after encapsulation: has not been damaged
[3]; silica particles made by double emulsion process with TMOS, no peak at 325 nm
  Integrity after encapsulation: has been degraded

## C1=Cc2nc1c(-c1ccccc1)c1ccc([nH]1)c(-c1ccccc1)c1nc(c(-c3ccccc3)c3ccc([nH]3)c2-c2ccccc2)C=C1 [tetraphenyl porphyrin]
[4]
  Porphyrin leached from the particles: 60%

## Sudan red
[2]; Example 6, 50/50 v/v ethanol/water
  Release (in words): slow release
Release into ethanol; Example 6, phenylsiloxane particles, within one hour
  Encapsulated dye released: approximately 70%
Release into ethanol; Example 7, vinylsiloxane particles, by 100 minutes, both samples
  Encapsulated dye released: > 90%

From patent publication US9017643B2, “Particles comprising a releasable dopant therein” (Australian Nuclear Science and Technology Organisation, priority 2005, dated 2015)
